The term EC50 denotes the concentration that produces a half-maximal response. A higher EC50 goes with a need for much substance.

From patent US9394285B2 (Pfizer Inc., priority 2013, dated 2016) come the findings set out here.

The experiment deals with human AMPK (full-length γ1, β1 and α1 subunits) (Homo sapiens (Human), UniProt Q13131+Q9Y478). Description: AMPK in vitro biochemical assay (33P-based, SAMS peptide, PP2A dephosphorylation). As to conditions: for EC50: activation of phosphorylated AMPK, 33P-ATP, SAMS peptide, PP2A treatment, 4-parameter fit; for Emax / Maximum: counts as % of positive control wells (enzyme, allosteric activator or AMP, PP2A and substrate); for Emax: read-out: Maximum. Summed up: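 Phosphorylated full-length α1β1γ1 AMPK (E. coli-expressed, His-purified, gel-filtered) preincubated 15 min RT with compound in HEPES pH 7.5, 10 mM MgCl2 buffer, then PP2A added to dephosphorylate pThr172.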
Chain of human AMPK (full-length γ1, β1 and α1 subunits) (Q13131 whole entry): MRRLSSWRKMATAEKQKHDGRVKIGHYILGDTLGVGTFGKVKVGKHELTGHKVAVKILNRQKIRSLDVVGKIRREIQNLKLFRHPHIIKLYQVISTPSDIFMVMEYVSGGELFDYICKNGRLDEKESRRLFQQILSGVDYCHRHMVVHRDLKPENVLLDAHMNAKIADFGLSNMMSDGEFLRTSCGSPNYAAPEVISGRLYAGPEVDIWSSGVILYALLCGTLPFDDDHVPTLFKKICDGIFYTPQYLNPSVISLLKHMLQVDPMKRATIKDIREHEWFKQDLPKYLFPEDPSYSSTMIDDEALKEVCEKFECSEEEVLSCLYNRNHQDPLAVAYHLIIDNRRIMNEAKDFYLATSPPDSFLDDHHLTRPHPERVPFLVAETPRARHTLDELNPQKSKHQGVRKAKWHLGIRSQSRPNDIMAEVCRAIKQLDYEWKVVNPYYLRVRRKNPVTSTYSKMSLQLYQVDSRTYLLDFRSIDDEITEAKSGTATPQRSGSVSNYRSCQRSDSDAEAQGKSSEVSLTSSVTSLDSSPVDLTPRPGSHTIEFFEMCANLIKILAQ
Chain of human AMPK (full-length γ1, β1 and α1 subunits) (Q9Y478 whole entry): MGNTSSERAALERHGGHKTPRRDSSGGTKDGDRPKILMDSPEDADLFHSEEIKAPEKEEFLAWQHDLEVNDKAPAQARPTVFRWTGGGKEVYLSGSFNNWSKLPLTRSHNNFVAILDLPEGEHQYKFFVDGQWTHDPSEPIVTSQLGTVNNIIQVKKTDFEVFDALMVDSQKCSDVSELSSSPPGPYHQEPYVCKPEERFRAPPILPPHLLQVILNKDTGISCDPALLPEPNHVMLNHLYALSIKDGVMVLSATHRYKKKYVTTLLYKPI
Chain of human AMPK (full-length γ1, β1 and α1 subunits) (P54619 whole entry partner): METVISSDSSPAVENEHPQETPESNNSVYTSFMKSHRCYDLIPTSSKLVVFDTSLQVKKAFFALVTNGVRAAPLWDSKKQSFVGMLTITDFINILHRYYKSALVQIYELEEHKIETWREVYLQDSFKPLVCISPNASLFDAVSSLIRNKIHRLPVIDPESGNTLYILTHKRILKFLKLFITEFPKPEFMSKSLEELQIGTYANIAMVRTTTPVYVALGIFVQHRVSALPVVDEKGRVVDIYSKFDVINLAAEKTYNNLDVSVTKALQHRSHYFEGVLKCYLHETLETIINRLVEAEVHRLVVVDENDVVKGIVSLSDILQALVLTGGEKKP

On to `Cc1cc(C2(O)CCC2)ccc1-c1cc2c(C(=O)O)c[nH]c2cc1Cl` [Example 40, 6-chloro-5-[4-(1-hydroxycyclobutyl)-2-methylphenyl]-1H-indole-3-carboxylic acid], for which a half-maximal response (EC50) required 821 nM and the Emax turned out to be 78%.
The corresponding values for `COc1nc(N2CCC(OC)C2)ccc1-c1cc2c(C(=O)O)c[nH]c2cc1Cl` (stereo in doubt) [Example 175, 6-chloro-5-{2-methoxy-6-[(3R)-3-methoxypyrrolidin-1-yl]pyridin-3-yl}-1H-indole-3-carboxylic acid] are 22.6 nM and 78.2%.
Consider `O=C(O)c1c[nH]c2cc(F)c(-c3ccc(C4CCCO4)cc3)cc12` (single isomer, unassigned) [Example 151, 6-fluoro-5-[4-(tetrahydrofuran-2-yl)phenyl]-1H-indole-3-carboxylic acid], for which it took 37.8 nM to reach a half-maximal effect (EC50) and the Maximum is given as 103.8%.
Regarding `O=C1COC(c2ccc(-c3cc4c(C(=O)O)c[nH]c4cc3Cl)cc2)CN1` (stereo not shown) [Example 79, 6-chloro-5-[4-(5-oxomorpholin-2-yl)phenyl]-1H-indole-3-carboxylic acid], the midpoint of the response, the EC50, lay at 104 nM and the Emax stood at 102%.
The corresponding values for `O=C(O)c1n[nH]c2cc(Cl)c(-c3ccc(OCCO)cc3)cc12` [Example 119, 6-Chloro-5-(4-(2-hydroxyethoxy)phenyl)-1H-indazole-3-carboxylic acid] are 44.8 nM and 97%.
Compound `O=C(O)c1n[nH]c2cc(Cl)c(-c3ccc([C@H]4C[C@H](O)C4)cc3)cc12` [Example 126, 6-Chloro-5-(4-((1R,3R)-3-hydroxycyclobutyl)phenyl)-1H-indazole-3-carboxylic acid] gave an EC50 of 26.8 nM.
Regarding `O=C(O)c1c[nH]c2cc(Cl)c(-c3ccc(OCCCC4COC4)cc3)cc12` [Example 157, 6-chloro-5-(4-(3-(oxetan-3-yl)propoxy)phenyl)-1H-indole-3-carboxylic acid], the EC50 was determined as 50.1 nM and the Emax is 96.1%.
Taken in the same sequence, the figures for `O=C(O)c1c[nH]c2cc(Cl)c(-c3ccc(C4(CO)CC4)cc3)cc12` [Example 75, 6-chloro-5-{4-[1-(hydroxymethyl)cyclopropyl]phenyl}-1H-indole-3-carboxylic acid] were 0.5 nM and 91%.
For `O=C(O)c1c[nH]c2cc(F)c(-c3ccc(-c4ccccc4O)cc3)cc12` [Example 135, 6-fluoro-5-(2′-hydroxybiphenyl-4-yl)-1H-indole-3-carboxylic acid], a half-maximal effect (EC50) was put at 6.5 nM and the Emax was 82%.
Taken in the same sequence, the figures for `O=C(O)c1c[nH]c2cc(Cl)c(-c3ccc(C4CCCOC4)cc3)cc12` (stereo not shown) [Example 168, 6-chloro-5-[4-(tetrahydro-2H-pyran-3-yl)phenyl]-1H-indole-3-carboxylic acid] were 171 nM and 109%.
Consider `COc1ccc(-c2cc3c(C(=O)O)c[nH]c3cc2Cl)c(F)c1` [Example 44, 6-chloro-5-(2-fluoro-4-methoxyphenyl)-1H-indole-3-carboxylic acid], for which the EC50 stood at 85 nM and the Emax is 78%.
For `O=C(O)c1c[nH]c2cc(F)c(-c3ccc(C4(O)COC4)cc3)c(F)c12` [Example 20, 4,6-difluoro-5-[4-(3-hydroxyoxetan-3-yl)phenyl]-1H-indole-3-carboxylic acid], the EC50 amounted to 53.6 nM and the Emax was 62%.
Regarding `O=C(O)c1c[nH]c2cc(Cl)c(-c3ccccc3)cc12` [Example 3, 6-Chloro-5-phenyl-1H-indole-3-carboxylic acid], it took 459 nM to reach a half-maximal effect (EC50) and the Emax worked out at 82%.
In turn, `COC(=O)N1CCC(c2ccc(-c3cc4c(C(=O)O)c[nH]c4cc3Cl)cc2)C1` (single isomer, unassigned) [Example 14B, 6-chloro-5-{4-[1-(methoxycarbonyl)pyrrolidin-3-yl]phenyl}-1H-indole-3-carboxylic acid] displayed a concentration giving a half-maximal response (EC50) of 118 nM and a Maximum of 91%.
Consider `COc1nc(N2CC[C@H](O)C2)ccc1-c1cc2c(C(=O)O)c[nH]c2cc1Cl` [Example 184, 6-chloro-5-{6-[(3S)-3-hydroxypyrrolidin-1-yl]-2-methoxypyridin-3-yl}-1H-indole-3-carboxylic acid], for which the EC50 was 6.2 nM and the Emax was 84%.
Consider `COC[C@@H](C)Oc1ccc(-c2cc3c(C(=O)O)c[nH]c3cc2Cl)cc1` [Example 158, 6-chloro-5-(4-{[(2R)-1-methoxypropan-2-yl]oxy}phenyl)-1H-indole-3-carboxylic acid], for which the concentration giving a half-maximal response (EC50) turned out to be 125 nM and the Emax worked out at 146%.
As for `Cc1cc2[nH]cc(C(=O)O)c2cc1-c1ccc(C2(O)CCC2)cc1` [Example 35, 5-[4-(1-hydroxycyclobutyl)phenyl]-6-methyl-1H-indole-3-carboxylic acid], the response was half-maximal at 74.2 nM (EC50) and the Emax worked out at 72%.
Taken in the same sequence, the figures for `O=C(O)c1c[nH]c2cc(Cl)c(-c3ccc(OCc4cccnc4)cc3)cc12` [Example 94, 6-chloro-5-[4-(pyridin-3-ylmethoxy)phenyl]-1H-indole-3-carboxylic acid] were 17.9 nM and 92%.
The corresponding values for `O=C(O)c1c[nH]c2cc(Cl)c(-c3ccc(OC4COC4)cc3)cc12` [Example 18, 6-chloro-5-[4-(oxetan-3-yloxy)phenyl]-1H-indole-3-carboxylic acid] are 181 nM and 92%.
Taken in the same sequence, the figures for `O=C(O)c1c[nH]c2cc(Cl)c(-c3ccc(N4CCCC4=O)cc3)cc12` [Example 64, 6-chloro-5-[4-(2-oxopyrrolidin-1-yl)phenyl]-1H-indole-3-carboxylic acid] were 169 nM and 82%.
On to `O=C(O)c1c[nH]c2cc(Cl)c(-c3ccc(C4(C(=O)O)CC4)cc3)cc12` [Example 88, 5-[4-(1-carboxycyclopropyl)phenyl]-6-chloro-1H-indole-3-carboxylic acid], for which the EC50 turned out to be 58.1 nM and the Emax came to 78%.
The corresponding values for `CC(C)c1ccc(-c2cc3c(C(=O)O)c[nH]c3cc2Cl)cc1` [Example 162, 6-chloro-5-[4-(propan-2-yl)phenyl]-1H-indole-3-carboxylic acid] are 192 nM and 123%.
Take `COc1ccc(-c2cc3c(C(=O)NS(=O)(=O)c4ccccc4)n[nH]c3cc2Cl)cc1` [Example 118, 6-Chloro-5-(4-methoxyphenyl)-N-(phenylsulfonyl)-1H-indazole-3-carboxamide]: the 50% effective concentration (EC50) turned out to be 169 nM and the Emax amounted to 125%.
The corresponding values for `NC(=O)C1(c2ccc(-c3cc4c(C(=O)O)n[nH]c4cc3Cl)cc2)CCC1` [Example 122, 5-(4-(1-Carbamoylcyclobutyl)phenyl)-6-chloro-1H-indazole-3-carboxylic acid] are 160 nM and 75%.
Taken in the same sequence, the figures for `O=C(O)c1n[nH]c2cc(Cl)c(-c3ccc4c(c3)OCCO4)cc12` [Example 121, 6-Chloro-5-(2,3-dihydrobenzo[b][1,4]dioxin-6-yl)-1H-indazole-3-carboxylic acid] were 369 nM and 102%.
Take `O=C(O)c1c[nH]c2cc(Cl)c(-c3ccc(C4CCOCC4)cc3)cc12` [Example 136, 6-Chloro-5-[4-(tetrahydro-2H-pyran-4-yl)phenyl]-1H-indole-3-carboxylic acid]: the EC50 stood at 39.3 nM and the Emax is 100%.
With `O=C(O)c1c[nH]c2cc(Cl)c(-c3ccc(C4(C(=O)O)CCC4)cc3)cc12` [Example 78, 5-[4-(1-carboxycyclobutyl)phenyl]-6-chloro-1H-indole-3-carboxylic acid], the EC50 turned out to be 2000 nM and the Emax came to 68%.
The corresponding values for `O=C(O)CCOc1ccc(-c2cc3c(C(=O)O)c[nH]c3cc2Cl)cc1` [Example 90, 5-[4-(2-carboxyethoxy)phenyl]-6-chloro-1H-indole-3-carboxylic acid] are 372 nM and 120%.
The corresponding values for `O=C(O)c1c[nH]c2cc(Cl)c(-c3ccc(OCCCO)c(F)c3)cc12` [Example 58, 6-chloro-5-[3-fluoro-4-(3-hydroxypropoxy)phenyl]-1H-indole-3-carboxylic acid] are 89.2 nM and 107%.
The corresponding values for `O=C(O)c1c[nH]c2cc(F)c(-c3ccc(OCCC4CCOC4)cc3)c(F)c12` (stereo not shown) [Example 190, 4,6-difluoro-5-{4-[2-(tetrahydrofuran-3-yl)ethoxy]phenyl}-1H-indole-3-carboxylic acid] are 109 nM and 108%.
For the compound `O=C(O)c1c[nH]c2cc(Cl)c(-c3ccc(C4(CO)CCC4)cc3F)cc12` [Example 164, 6-chloro-5-{2-fluoro-4-[1-(hydroxymethyl)cyclobutyl]phenyl}-1H-indole-3-carboxylic acid], the EC50 is 17.5 nM and the Emax is 142%.
On to `CCOc1ccc(-c2cc3c(C(=O)O)c[nH]c3cc2Cl)cc1` [Example 31, 6-Chloro-5-(4-ethoxyphenyl)-1H-indole-3-carboxylic acid], for which a half-maximal effect (EC50) was put at 130 nM and the Emax amounted to 104%.
Taken in the same sequence, the figures for `COc1cc(-c2cc3c(C(=O)O)c[nH]c3cc2Cl)ccc1[C@H]1C[C@H](O)C1` [Example 146, 6-chloro-5-[4-(trans-3-hydroxycyclobutyl)-3-methoxyphenyl]-1H-indole-3-carboxylic acid] were 35.3 nM and 119%.
As to `O=C(O)c1c[nH]c2cc(F)c(-c3ccc(C4CCCO4)cc3)cc12` (single isomer, unassigned) [Example 150, 6-fluoro-5-[4-(tetrahydrofuran-2-yl)phenyl]-1H-indole-3-carboxylic acid], the EC50 was found to be 165 nM and the Emax was 112%.
